Where a name gives a salt, the structure may show the parent alone.
Biological target: T1, IRAK4 (Homo sapiens, UniProt Q9NWZ3)
T1 sequence (Q9NWZ3 1-460): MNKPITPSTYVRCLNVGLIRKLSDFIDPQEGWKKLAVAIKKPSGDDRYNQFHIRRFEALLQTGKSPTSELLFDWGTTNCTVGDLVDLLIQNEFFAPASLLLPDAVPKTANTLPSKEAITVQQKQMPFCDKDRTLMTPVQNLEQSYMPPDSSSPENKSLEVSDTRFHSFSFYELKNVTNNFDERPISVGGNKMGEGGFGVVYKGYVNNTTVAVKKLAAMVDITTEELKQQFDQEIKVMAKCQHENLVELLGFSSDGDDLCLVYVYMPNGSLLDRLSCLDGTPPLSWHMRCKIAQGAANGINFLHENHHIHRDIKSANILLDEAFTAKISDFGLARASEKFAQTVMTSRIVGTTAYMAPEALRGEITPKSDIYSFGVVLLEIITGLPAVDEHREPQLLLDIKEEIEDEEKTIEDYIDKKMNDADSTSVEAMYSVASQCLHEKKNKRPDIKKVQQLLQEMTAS
Assay: biochemical
Conditions: not given

SMILES	IC50 [µM]
CCCOc1nc(C(=O)Nc2cccnc2OC)cn2cc(C34COC(C)(C3)C4)nc12 [Example 342, N-(2-methoxypyridin-3-yl)-2-(1-methyl-2-oxabicyclo[2.1.1]hexan-4-yl)-8-propoxyimidazo[1,2-a]pyrazine-6-carboxamide]	0.001
CC12CC(c3cn4cc(C(=O)Nc5ccn(C(F)F)n5)c(OC5CCC5)cc4n3)(CO1)C2 [Example 523, 7-Cyclobutoxy-N-(1-(difluoromethyl)-1H-pyrazol-3-yl)-2-(1-methyl-2-oxabicyclo[2.1.1]hexan-4-yl)imidazo[1,2-a]pyridine-6-carboxamide]	0.0023
CC(C)Oc1cc2nc(C34COC(C)(C3)C4)cn2cc1C(=O)Nc1ccnc2cccnc12 [Example 319, 7-Isopropoxy-2-(1-methyl-2-oxabicyclo[2.1.1]hexan-4-yl)-N-(1,5-naphthyridin-4-yl)imidazo[1,2-a]pyridine-6-carboxamide]	0.0016
COc1cnc2c(NC(=O)c3cn4cc(C56COC(C)(C5)C6)nc4c(F)c3OC(C)C)cnn2c1 [Example 407, 8-Fluoro-7-isopropoxy-N-(6-methoxypyrazolo[1,5-a]pyrimidin-3-yl)-2-(1-methyl-2-oxabicyclo[2.1.1]hexan-4-yl)imidazo[1,2-a]pyridine-6-carboxamide]	0.0052
CC(C)Oc1nc2nc(C34COC(C)(C3)C4)cn2cc1C(=O)Nc1cccc(F)c1Cl [Example 399, N-(2-chloro-3-fluorophenyl)-7-isopropoxy-2-(1-methyl-2-oxabicyclo[2.1.1]hexan-4-yl)imidazo[1,2-a]pyrimidine-6-carboxamide]	0.003
Cc1cnc2c(NC(=O)c3cn4cc(C56COC(C)(C5)C6)nc4cc3O[C@@H](C)C3CC3)cnn2c1 (single isomer, unassigned) [Example 658]	0.0006
CCc1cccc(NC(=O)c2cn3cc(C4CCOCC4)nc3c(OC)n2)n1 [Example 86]	0.034
CCOc1nc(C(=O)Nc2ccn(CC)n2)cn2cc(C34COC(C)(C3)C4)nc12 [Example 501, 8-Ethoxy-N-(1-ethyl-1H-pyrazol-3-yl)-2-(1-methyl-2-oxabicyclo[2.1.1]hexan-4-yl)imidazo[1,2-a]pyrazine-6-carboxamide]	0.0069
CC(C)Oc1cc2nc([C@]34CC[C@](C)(C3)OC4)cn2cc1C(=O)Nc1cccn(C(F)F)c1=O (single isomer, unassigned) [Example 625]	0.0003
CC12CCC(c3cn4cc(C(=O)Nc5cnn6cccnc56)c(OC5CCC5)cc4n3)(CO1)C2 (stereo not shown) [Example 425, 7-Cyclobutoxy-2-(1-methyl-2-oxabicyclo[2.2.1]heptan-4-yl)-N-(pyrazolo[1,5-a]pyrimidin-3-yl)imidazo[1,2-a]pyridine-6-carboxamide]	0.0004
Cn1cccc(NC(=O)c2cn3cc(C45CCC(C)(CC4)OC5)nc3cc2OC2CCC2)c1=O [Example 421, 7-Cyclobutoxy-N-(1-methyl-2-oxo-1,2-dihydropyridin-3-yl)-2-(1-methyl-2-oxabicyclo[2.2.2]octan-4-yl)imidazo[1,2-a]pyridine-6-carboxamide]	0.0002
COc1ncccc1NC(=O)c1cn2cc(C34CCOC(C)(C3)C4)nc2c(OC)n1 [Example 235]	0.0035
Cn1ccc(NC(=O)c2cn3cc(C45CCC(C)(C4)OC5)nc3cc2OC2CCC2)n1 (stereo not shown) [Example 561, 7-Cyclobutoxy-N-(1-methyl-1H-pyrazol-3-yl)-2-(1-methyl-2-oxabicyclo[2.2.1]heptan-4-yl)imidazo[1,2-a]pyridine-6-carboxamide]	0.0014
CC(C)Oc1nc2nc(C34COC(C)(C3)C4)cn2cc1C(=O)Nc1cccc(C2CC2)n1 [Example 387, N-(6-cyclopropylpyridin-2-yl)-7-isopropoxy-2-(1-methyl-2-oxabicyclo[2.1.1]hexan-4-yl)imidazo[1,2-a]pyrimidine-6-carboxamide]	0.0009
COc1cc2nc(C3CCOCC3)cn2cc1C(=O)Nc1ccn(C2CC2(F)F)n1 (stereo not shown) [Example 197]	0.166
COc1ncccc1NC(=O)c1cn2cc(C3CC3)nc2cc1OC1CCC1 [Example 462, 7-Cyclobutoxy-2-cyclopropyl-N-(2-methoxypyridin-3-yl)imidazo[1,2-a]pyridine-6-carboxamide]	0.0032
CC(C)Oc1nc2nc(C34COC(C)(C3)C4)cn2cc1C(=O)Nc1nc(C(F)F)cs1 [Example 367, N-(4-(difluoromethyl)thiazol-2-yl)-7-isopropoxy-2-(1-methyl-2-oxabicyclo[2.1.1]hexan-4-yl)imidazo[1,2-a]pyrimidine-6-carboxamide]	0.0079
CC(C)(C)c1cn2cc(C(=O)Nc3cccc(C(F)F)n3)c(OC3COC4(CC4)C3)cc2n1 (stereo not shown) [Example 268, 7-((4-Oxaspiro[2.4]heptan-6-yl)oxy)-2-(tert-butyl)-N-(6-(difluoromethyl)pyridin-2-yl)imidazo[1,2-a]pyridine-6-carboxamide]	0.0083
CC(C)Oc1cc2nc(C34CCC(C)(C3)OC4)cn2cc1C(=O)Nc1ccc(F)cn1 (stereo not shown) [Example 517, N-(5-fluoropyridin-2-yl)-7-isopropoxy-2-(1-methyl-2-oxabicyclo[2.2.1]heptan-4-yl)imidazo[1,2-a]pyridine-6-carboxamide]	0.0043
COc1cc2nc(C3CCOCC3)cn2cc1C(=O)Nc1cccc(C)c1Cl [Example 115]	0.0061
CC1(C)CC(Oc2cc3nc(C45COC(C)(C4)C5)cn3cc2C(=O)Nc2cccn(C(F)F)c2=O)C1 [Example 445, N-(1-(difluoromethyl)-2-oxo-1,2-dihydropyridin-3-yl)-7-(3,3-dimethylcyclobutoxy)-2-(1-methyl-2-oxabicyclo[2.1.1]hexan-4-yl)imidazo[1,2-a]pyridine-6-carboxamide]	0.0006
COc1nc(C(=O)Nc2cccc(C(F)F)n2)cn2cc(C34CCOC(C)(C3)C4)nc12 [Example 234]	0.0053
CC(C)Oc1cc2nc(C34COC(C)(C3)C4)cn2cc1C(=O)Nc1cc(C#N)cn(C)c1=O [Example 262, N-(5-cyano-1-methyl-2-oxo-1,2-dihydropyridin-3-yl)-7-isopropoxy-2-(1-methyl-2-oxabicyclo[2.1.1]hexan-4-yl)imidazo[1,2-a]pyridine-6-carboxamide]	0.028
Cn1ccc(NC(=O)c2cn3cc(C45COC(C)(C4)C5)nc3nc2OC2CCCC2)n1 [Example 285, 7-(Cyclopentyloxy)-N-(1-methyl-1H-pyrazol-3-yl)-2-(1-methyl-2-oxabicyclo[2.1.1]hexan-4-yl)imidazo[1,2-a]pyrimidine-6-carboxamide]	0.006
Cc1cnc2c(NC(=O)c3cn4cc(C56COC(CF)(C5)C6)nc4nc3OC(C)C)cnn2c1 [Example 434]	0.0005
CCC(C)Oc1nc2nc(C34COC(CF)(C3)C4)cn2cc1C(=O)Nc1cnn2cc(C)cnc12 (single isomer, unassigned) [Example 644]	0.0012
CC(C)Oc1ncccc1NC(=O)c1cn2cc(C34CCC(C)(C3)OC4)nc2cc1OC1CCC1 (stereo not shown) [Example 539, 7-Cyclobutoxy-N-(2-isopropoxypyridin-3-yl)-2-(1-methyl-2-oxabicyclo[2.2.1]heptan-4-yl)imidazo[1,2-a]pyridine-6-carboxamide]	0.0229
COc1nc(C(=O)Nc2ccnn2C)cn2cc(C3CCOCC3)nc12 [Example 89]	5.69

Same assay, conditions: IRAK4 Biochemical Assay (1 mM ATP, 2 h) IC50 (μM), 1 mM ATP, 2 h, 100 pM IRAK4

SMILES	IC50 [µM]
CC(C)Oc1nc2nc(C34COC(C)(C3)C4)cn2cc1C(=O)Nc1ccc2c(n1)CCC2 [Example 366, N-(6,7-dihydro-5H-cyclopenta[b]pyridin-2-yl)-7-isopropoxy-2-(1-methyl-2-oxabicyclo[2.1.1]hexan-4-yl)imidazo[1,2-a]pyrimidine-6-carboxamide trifluoroacetate]	0.0065
CC1(COc2cc3nc(C4CC4)cn3cc2C(=O)Nc2cccc(C(F)F)n2)CCOC1 (stereo not shown) [Example 475, 2-Cyclopropyl-N-(6-(difluoromethyl)pyridin-2-yl)-7-((3-methyltetrahydrofuran-3-yl)methoxy)imidazo[1,2-a]pyridine-6-carboxamide]	0.0088
CC(C)Oc1cc2nc(C34COC(C)(C3)C4)cn2cc1C(=O)Nc1cnn2cccnc12 [Example 299, 7-Isopropoxy-2-(1-methyl-2-oxabicyclo[2.1.1]hexan-4-yl)-N-(pyrazolo[1,5-a]pyrimidin-3-yl)imidazo[1,2-a]pyridine-6-carboxamide trifluoroacetate]	0.0005
CC(C)Oc1cc2nc(C34COC(C)(C3)C4)c(F)n2cc1C(=O)Nc1ccn(C)n1 [Example 327, 3-Fluoro-7-isopropoxy-N-(1-methyl-1H-pyrazol-3-yl)-2-(1-methyl-2-oxabicyclo[2.1.1]hexan-4-yl)imidazo[1,2-a]pyridine-6-carboxamide trifluoroacetate]	0.0372
CCCOc1nc(C(=O)Nc2cccnc2OC)cn2cc(C34CCC(C)(C3)OC4)nc12 (stereo not shown) [Example 275, N-(2-methoxypyridin-3-yl)-2-(1-methyl-2-oxabicyclo[2.2.1]heptan-4-yl)-8-propoxyimidazo[1,2-a]pyrazine-6-carboxamide trifluoroacetate]	0.0007
CC(C)Oc1cc2nc(C34COC(C)(C3)C4)cn2cc1C(=O)Nc1cccc(C#N)c1F [Example 257, N-(3-cyano-2-fluorophenyl)-7-isopropoxy-2-(1-methyl-2-oxabicyclo[2.1.1]hexan-4-yl)imidazo[1,2-a]pyridine-6-carboxamide trifluoroacetate]	0.0003
